Tests used:
[1] = system: Calvarial cell; test: Alkaline phosphatase (ALP) activity in osteoblasts (Calvarial cells); format: cell-based, mouse; conditions: 3 days; for activity at 1 µM: Mus musculus, 72 h, read-out: ALP activity (1 μM, % of Control) Calvarial cell
Experimental: (§1) Differentiation and activity of osteoblasts were indirectly evaluated by measuring an ALP activity having a close relationship with osteogenesis.
(§2) Osteoblasts (Calvarial cells) prepared in Experimental Example 1 and MC3T3-E1 cells (available from RIKEN Cell Bank, Japan) were collected in α-MEM supplemented with 10% FBS, followed by cell counting. The cells were dispensed into 24-well cultureware at a density of 2×10^4 cells/well. After culturing of the cells for 24 hours, the culture media were discarded and replaced with fresh media in which test compounds were diluted to a concentration of 1 μM (1 mL/well). In addition, the vehicle control group containing 0.1% DMSO was also treated. Under the conditions where the compounds were treated, the cells were cultured in a 5% CO2 […] at 37° for 3 days. When the experiment was terminated, the supernatant was removed and the cells were washed three times with cold phosphate buffer at 4°. 0.2% Triton X-100 was added to the washed cells which were then subjected to three cycles of freezing at −70° and thawing at room temperature for the complete lysis of cells. The cell extracts were pooled and centrifuged to collect the cell supernatant which was used for the measurement of ALP activity and proteins. The protein concentration was measured using a BCA assay kit (manufactured by Sigma-Aldrich). For the measurement of ALP activity, p-nitrophenylphosphate was added to the cell supernatant which was then incubated at 37° for 30 minutes, and the reaction was terminated with the addition of 50 μL of 0.2N sodium hydroxide. The standard curve was plotted at the absorbance of 405 nm using p-nitrophenol as a standard material and then the absorbance of test materials thus reacted was measured to determine the production amount of p-nitrophenol.
(§3) The ALP activity was calculated by dividing the amount of p-nitrophenol produced from each test material by the protein amount and the reaction time. Therefore, the unit of ALP activity was given in terms of p-nitrophenol/μg protein/min. The results are given in Table 3 where the ALP activity unit of each test material was given in terms of % change through the comparison between the individual test materials and the vehicle control group.

[2] = system: Calvarial cell; test: Cytotoxicity test (MTT) in osteoblasts (calvarial cells); conditions: 1 μM, 72 hours, vs vehicle control
Experimental: Drugs were diluted to a concentration of 2 μM in α-MEM culture media supplemented with 10% FBS. The vehicle control group was established to contain 0.2% DMSO. 100 μL/well of the diluted drugs were dispensed into 96-well plates to which osteoblasts (calvarial cells) prepared in Experimental Example 1 were then added at a density of 1.0×10^4 cells/100 μL/well. Here, the final compound concentration in the cell culture was 1 μM, and the vehicle control group contained 0.1% DMSO. The cells were cultured in a 5% CO2 inhibitorr at 37° for 72 hours. 25 μL of 3-(4,5-dimethyl-2-thiazolyl)-2,5-diphenyl-2H-tetrazolium bromide (MTT) dissolved in PBS (2 mg/mL) was added to each cell culture 4 hours before the end of culture. After completion of the reaction, the plates were centrifuged, the media were discarded, and 100 μL of formazan was added and dissolved in dimethyl sulfoxide (DMSO). Finally, the absorbance of the developed plates was measured at 540 nm. The cell viability was expressed as % concentration in comparison with the vehicle control group.

[3] = system: osteoclastogenesis (formation of multinucleated osteoclasts); test: Osteoclastogenesis inhibition via co-culture system (bone marrow cells + osteoblasts, TRAP staining); format: cell-based, mouse; conditions: 7 days co-culture, vs vehicle control; for inhibition at 1 µM: Mus musculus, Osteoclast, 168 h; for Osteoclastogenesis inhibition (%): 1 μM
Experimental: Osteoclastogenesis inhibitory effects of the compounds of the present invention were evaluated via a co-culture system (Reference: Endocrinology 137(1996), 2187 to 2190, E. Jimi et al.). A specific experimental method is as follows.
1) Preparation of Bone Marrow Cells and Osteoblasts
Femur and tibia were aseptically dissected from 6 to 8-week-old male ddY mice to harvest bone marrow cells by a conventional method using a syringe. In brief, tissues were removed from the dissected bone, the bone ends were cut off with scissors, and the bone marrow was isolated by pushing a medium-containing syringe (23G) against the one end of the cut bone. The isolated bone marrow was subjected to repeated piston movement of a syringe such that single cells were obtained (Reference: Endocrinology 123(1988), 2600 to 2602, Takahashi et al.). After removal of red blood cells within the bone marrow, the bone marrow cells recovered by centrifugation were placed in an α-MEM supplemented with 10% fetal bovine serum (FBS), followed by counting of nucleated cells and then were immediately used for a co-culture system.
For the preparation of osteoblasts (Calvarial cells), the cranial bone were aseptically dissected from 1 to 2-day-old neonatal ICR mice and subjected to continuous reaction with a 0.2% collagenase solution to separate osteoblasts. The cell-suspended supernatant was centrifuged to recover osteoblasts which were grown to full confluence in an α-MEM supplemented with 10% FBS and then diluted to a desired cell density for use in the experiment.
2) Osteoclastogenesis Inhibition Experiment Via Co-Culture System
As the medium used for a co-culture system, a differentiation medium with the addition of differentiation factors 1α,25-dihydroxyvitamin D3 (10^−8M) and dexamethasone (10^−8M) to α-MEM supplemented with 10% FBS was used for the induction of osteoclastogenesis. First, the compounds of the present invention dissolved in dimethyl sulfoxide (DMSO) at a concentration of 1 mM were diluted to 2 μM using the above-mentioned differentiation medium. As a vehicle control group, 0.2% (v/v) DMSO was added to the medium. 100 μL/well of each medium was added to 96-well plates. In addition, the above prepared bone marrow cells and osteoblasts were plated onto 96-well plates at a density of 1×10^5 cells/50 μL/well and 3×10^3 cells/50 μL/well, respectively. The total volume/well was 200 μL and the final compound concentration was 1 μM. The control group was 0.1% (v/v) DMSO. The cells were cultured with exchange of the culture media with fresh media containing differentiation factors and test materials (materials containing the compounds of the present invention) at an interval of 2 to 3 days.
7 days after culturing of cells, the formation of multinucleated osteoclasts was confirmed by microscopic examination, the medium was removed from the wells and then the cells were fixed in a 10% phosphate-buffered formalin solution. The degree of formation of mature osteoclasts was measured taking advantage of the characteristics of osteoclasts showing a positive reaction to a tartrate-resistant acid phosphatase (TRAP) staining solution. The TRAP staining solution was prepared in a manner such that naphthol AS-MS phosphate as a substrate and a coloring agent (Fast Red Violet LB salt) were dissolved in N,N-dimethylformamide, and a 0.1N NaHCO3 buffer solution containing 50 mM of tartaric acid was added thereto. Among the TRAP-positive cells under a light microscope, multinucleated osteoclasts having 6 to 7 nuclei were regarded as mature osteoclasts.
The degree of inhibition of osteoclastogenesis was calculated according to the following equation 1. The results are summarized in Table 2 below (Experiments were carried out for 4 wells/experimental group (n=4), and the results are given in terms of mean±standard deviation) […]

[4] = system: MC3T3-E1 cell; test: Alkaline phosphatase (ALP) activity in MC3T3-E1 cells; format: cell-based; conditions: 3 days
Experimental: as §1, §2, §3

| Compound | activity at 1 µM [1] | Cell viability (%) Calvarial cell [2] | inhibition at 1 µM [3] | ALP activity (1 μM, % of Control) Calvarial cell [1] | Osteoclastogenesis inhibition (%) [3] | ALP activity (1 μM, % of Control) MC3T3-E1 cell [4] |
| --- | --- | --- | --- | --- | --- | --- |
| O=[N+]([O-])c1ccc(NCc2ccccn2)nc1Nc1ccc2cn[nH]c2c1 [Compound 21, 2-(1H-indazol-6-yl)amino-6-[(2-pyridyl)methylamino]-3-nitropyridine] | 115% | 96% | – | – | – | – |
| O=[N+]([O-])c1ccc(NCCCn2ccnc2)nc1Nc1ccc2cn[nH]c2c1 [Compound 49, 2-(1H-indazol-6-yl)amino-6-[(3-imidazol-1-yl)propylamino]-3-nitropyridine] | 129% | 95% | – | – | – | – |
| CN(C)CCNc1ccc([N+](=O)[O-])c(Nc2ccc3cn[nH]c3c2)n1 [Compound 20, 2-(1H-indazol-6-yl)amino-6-[2-(N,N-dimethylamino)ethylamino]-3-nitropyridine] | 119% | – | 90% | – | – | – |
| O=[N+]([O-])c1ccc(NC2CC2)nc1Nc1ccc2[nH]ncc2c1 [Compound 34, 2-(1H-indazol-5-yl)amino-6-(cyclopropylamino)-3-nitropyridine] | 154% | 93% | 100% | – | – | – |
| O=[N+]([O-])c1ccc(NN2CCOCC2)nc1Nc1ccc2cn[nH]c2c1 [Compound 24, 2-(1H-indazol-6-yl)amino-6-[(4-morpholin-1-yl)amino]-3-nitropyridine] | – | 110% | – | 107 % of Control | 86% | – |
| CN1CCN(c2ccc([N+](=O)[O-])c(Nc3ccc4[nH]ncc4c3)n2)CC1 [Compound 39, 2-(1H-indazol-5-yl)amino-6-(4-methylpiperazin-1-yl)-3-nitropyridine] | 159% | 97% | 80% | – | – | – |
| O=[N+]([O-])c1ccc(NC(CO)CO)nc1Nc1ccc2[nH]ncc2c1 [Compound 35, 2-(1H-indazol-5-yl)amino-6-[(2-hydroxy-1-hydroxymethyl)-ethylamino]-3-nitropyridine] | – | 104% | – | – | – | 123 % of Control |
| CN1CCN(Nc2ccc([N+](=O)[O-])c(Nc3ccc4cn[nH]c4c3)n2)CC1 [Compound 23, 2-(1H-indazol-6-yl)amino-6-[(4-methylpiperazin-1-yl)amino]-3-nitropyridine] | 139% | 98% | 92% | – | – | – |
| CN(C)c1ccc([N+](=O)[O-])c(Nc2ccc3[nH]ncc3c2)n1 [Compound 25, 2-(1H-indazol-5-yl)amino-6-(N,N-dimethylamino)-3-nitropyridine] | 128% | 106% | 81% | – | – | – |
| O=[N+]([O-])c1ccc(N2CCN(CCO)CC2)nc1Nc1ccc2cn[nH]c2c1 [Compound 19, 2-(1H-indazol-6-yl)amino-6-[4-(2-hydroxyethyl)piperazin-1-yl]-3-nitropyridine] | 132% | 100% | 90% | – | – | – |
| CC(C)Nc1ccc([N+](=O)[O-])c(Nc2ccc3cn[nH]c3c2)n1 [Compound 33, 2-(1H-indazol-6-yl)amino-6-(isopropylamino)-3-nitropyridine] | 122% | 97% | – | – | – | – |
| O=[N+]([O-])c1ccc(NCc2ccncc2)nc1Nc1ccc2cn[nH]c2c1 [Compound 26, 2-(1H-indazol-6-yl)amino-6-[(4-pyridyl)methylamino]-3-nitropyridine] | 113% | 106% | 78% | – | – | – |
| 2-(1H-indazol-5-yl)amino-6-(2-methyl-4,5-dihydroimidazol-1-yl)amino-3-nitropyridine [Compound 1] | – | – | – | 158 % of Control | – | 168 % of Control |
| COCC(C)Nc1ccc([N+](=O)[O-])c(Nc2ccc3[nH]ncc3c2)n1 (stereo not drawn) [Compound 22, 2-(1H-indazol-5-yl)amino-6-[(1-methyl-2-methoxy)ethylamino]-3-nitropyridine] | – | 99% | – | 119 % of Control | 100% | – |

— patent US20110306641A1, “NOVEL 2,6-SUBSTITUTED-3-NITROPYRIDINE DERIVATIVE, METHOD FOR PREPARING SAME, AND PHARMACEUTICAL PREPARATION INCLUDING SAME” (priority 2008, published 2011)
